Experimental data: ChEMBL document CHEMBL4024756, “Identification of 4-Phenoxyquinoline Based Inhibitors for L1196M Mutant of Anaplastic Lymphoma Kinase by Structure-Based Design” (J Med Chem, 2017)
Activity calls are given as the source filed them. The calls are words filed in the database; no cut-off is given here.

Test system: ALK tyrosine kinase receptor (Homo sapiens), Q9UM73 [L1196M]
Sequence (Q9UM73 whole entry L1196M, looked up): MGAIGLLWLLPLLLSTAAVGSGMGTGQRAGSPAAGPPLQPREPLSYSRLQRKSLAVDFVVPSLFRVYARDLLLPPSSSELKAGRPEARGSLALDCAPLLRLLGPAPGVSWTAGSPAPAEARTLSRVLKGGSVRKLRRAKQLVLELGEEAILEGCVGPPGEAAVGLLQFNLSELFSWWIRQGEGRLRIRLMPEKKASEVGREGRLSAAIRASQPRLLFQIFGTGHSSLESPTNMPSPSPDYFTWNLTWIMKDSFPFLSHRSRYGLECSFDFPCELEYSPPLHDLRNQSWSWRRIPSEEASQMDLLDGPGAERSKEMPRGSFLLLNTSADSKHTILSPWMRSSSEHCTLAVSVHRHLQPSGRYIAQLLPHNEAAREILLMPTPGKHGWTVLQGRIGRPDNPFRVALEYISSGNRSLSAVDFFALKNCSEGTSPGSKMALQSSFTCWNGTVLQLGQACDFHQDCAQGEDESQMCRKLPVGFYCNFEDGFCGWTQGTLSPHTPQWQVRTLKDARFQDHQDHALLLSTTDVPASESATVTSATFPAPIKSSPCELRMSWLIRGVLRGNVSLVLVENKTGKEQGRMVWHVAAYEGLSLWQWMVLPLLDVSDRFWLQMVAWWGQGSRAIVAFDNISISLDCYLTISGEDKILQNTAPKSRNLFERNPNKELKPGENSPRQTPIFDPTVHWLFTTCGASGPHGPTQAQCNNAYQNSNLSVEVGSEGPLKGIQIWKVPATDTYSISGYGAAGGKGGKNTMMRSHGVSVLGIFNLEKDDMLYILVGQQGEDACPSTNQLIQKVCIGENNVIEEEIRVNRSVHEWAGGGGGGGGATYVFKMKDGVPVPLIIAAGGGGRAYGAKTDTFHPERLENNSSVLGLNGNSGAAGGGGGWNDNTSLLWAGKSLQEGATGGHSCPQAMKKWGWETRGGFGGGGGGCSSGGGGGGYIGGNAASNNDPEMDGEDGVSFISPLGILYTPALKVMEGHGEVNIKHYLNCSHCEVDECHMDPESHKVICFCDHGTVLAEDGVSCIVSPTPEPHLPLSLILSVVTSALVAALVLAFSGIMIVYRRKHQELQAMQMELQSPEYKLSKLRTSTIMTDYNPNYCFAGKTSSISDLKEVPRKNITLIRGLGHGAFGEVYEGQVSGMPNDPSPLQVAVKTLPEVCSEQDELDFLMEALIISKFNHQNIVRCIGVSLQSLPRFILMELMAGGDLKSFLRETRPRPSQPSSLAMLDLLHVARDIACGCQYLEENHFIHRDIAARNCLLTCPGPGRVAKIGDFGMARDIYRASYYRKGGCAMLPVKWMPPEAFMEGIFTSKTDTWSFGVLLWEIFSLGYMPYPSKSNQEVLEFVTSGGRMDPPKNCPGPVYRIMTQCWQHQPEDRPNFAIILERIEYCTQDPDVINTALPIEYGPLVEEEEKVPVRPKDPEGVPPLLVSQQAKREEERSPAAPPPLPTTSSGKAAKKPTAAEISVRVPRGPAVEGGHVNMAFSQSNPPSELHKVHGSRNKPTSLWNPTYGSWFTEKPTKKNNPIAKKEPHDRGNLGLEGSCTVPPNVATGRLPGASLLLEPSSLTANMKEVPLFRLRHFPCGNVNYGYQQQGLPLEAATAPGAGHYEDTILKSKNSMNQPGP

Cc1ccc(Oc2ccnc3cc(-c4cnn(C5CCNCC5)c4)ccc23)cc1
TDI: inactive
